Where “and” joins values, the source holds several entries; their conditions need not be identical. Identical values can stand only once. Toxic doses and inconclusive results are not listed.
Test system: BDF1 mice, P388 leukemia ip, median survival T/C
Assay: NCI In Vivo Anticancer Drug Screen. Data for tumor model P388 Leukemia (intraperitoneal) in B6D2F1 (BDF1) mice
Details: endpoint: median survival time, higher = longer survival
Summary of the method: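 Read-out is survival of treated animals expressed relative to the vehicle group, as a T/C ratio.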

[1] = dose: 100.0 mg/kg/injection, schedule: Q04DX003 (ip), vehicle: saline
[2] = dose: 100.0 mg/kg/injection, schedule: Q04DX003 (ip), vehicle: saline with Tween-80
[3] = dose: 200.0 mg/kg/injection, schedule: Q04DX003 (ip), vehicle: saline with Tween-80
[4] = dose: 400.0 mg/kg/injection, schedule: Q04DX003 (ip), vehicle: saline with Tween-80
[5] = dose: 50.0 mg/kg/injection, schedule: Q01DX009 (ip), vehicle: saline with Tween-80
[6] = dose: 50.0 mg/kg/injection, schedule: Q01DX009 (ip), vehicle: saline
[7] = dose: 100.0 mg/kg/injection, schedule: Q01DX009 (ip), vehicle: saline with Tween-80
[8] = dose: 200.0 mg/kg/injection, schedule: Q01DX009 (ip), vehicle: saline with Tween-80
[9] = dose: 400.0 mg/kg/injection, schedule: Q01DX009 (ip), vehicle: saline with Tween-80
[10] = dose: 100.0 mg/kg/injection, schedule: Q04DX003 (ip), vehicle: Klucel (hydroxypropylcellulose) (HPC)
[11] = dose: 200.0 mg/kg/injection, schedule: Q01DX009 (ip), vehicle: saline
[12] = dose: 200.0 mg/kg/injection, schedule: Q04DX003 (ip), vehicle: saline
[13] = dose: 400.0 mg/kg/injection, schedule: Q04DX003 (ip), vehicle: saline
[14] = dose: 25.0 mg/kg/injection, schedule: Q01DX009 (ip), vehicle: saline with Tween-80
[15] = dose: 12.5 mg/kg/injection, schedule: Q01DX009 (ip), vehicle: saline with Tween-80

CCSC(C(O)C(O)C(O)C(O)CO)n1ccc(=O)[nH]c1=O (stereo not given)
T/C (dose: 12.5 mg/kg/injection, schedule: Q01DX001 (ip), vehicle: saline): 100 % of control | T/C (dose: 25.0 mg/kg/injection, schedule: Q01DX001 (ip), vehicle: saline): 100 % of control | T/C (dose: 50.0 mg/kg/injection, schedule: Q01DX001 (ip), vehicle: saline): 100 % of control

C[n+]1csc(=S)[nH]1
T/C (dose: 25.0 mg/kg/injection, schedule: Q04DX003 (ip), vehicle: saline): 86 % of control | T/C (dose: 50.0 mg/kg/injection, schedule: Q04DX003 (ip), vehicle: saline): 95 % of control | T/C [1]: 100 % of control

Nc1ccccc1SC1CC(=O)N(c2ccc(Br)c(Cl)c2)C1=O (stereo not given)
T/C (dose: 0.1 mg/kg/injection, schedule: Q01DX005 (ip), vehicle: saline with Tween-80): 98 % of control | T/C (dose: 0.2 mg/kg/injection, schedule: Q01DX005 (ip), vehicle: saline with Tween-80): 93 % of control | T/C (dose: 0.4 mg/kg/injection, schedule: Q01DX005 (ip), vehicle: saline with Tween-80): 100 % of control | T/C (dose: 1.5 mg/kg/injection, schedule: Q01DX005 (ip), vehicle: saline with Tween-80): 95 % of control | T/C (dose: 3.0 mg/kg/injection, schedule: Q01DX005 (ip), vehicle: saline with Tween-80): 90 % of control

CCC(=O)N(C)[C@@H](C)C(=O)O[C@H]1CC(=O)N(C)c2cc(cc(OC)c2Cl)C/C(C)=C/C=C[C@@H](OC)[C@@]2(O)C[C@H](OC(=O)N2)[C@@H](C)[C@@H]2O[C@@]12C
T/C (dose: 0.2 micrograms/kg/injection, schedule: Q01DX009 (ip), vehicle: saline): 120 % of control | T/C (dose: 1.6 micrograms/kg/injection, schedule: Q01DX009 (ip), vehicle: saline): 154 % of control | T/C (dose: 3.1 micrograms/kg/injection, schedule: Q01DX009 (ip), vehicle: saline): 150 % of control | T/C (dose: 12.5 micrograms/kg/injection, schedule: Q01DX009 (ip), vehicle: saline): 104 % of control

COC(=N)CCCCCC(=N)OC
T/C (dose: 50.0 mg/kg/injection, schedule: Q01DX005 (ip), vehicle: saline): 92 % of control | T/C (dose: 100.0 mg/kg/injection, schedule: Q01DX005 (ip), vehicle: saline): 97 % of control | T/C (dose: 200.0 mg/kg/injection, schedule: Q01DX005 (ip), vehicle: saline): 87 % of control

CC(C)(O)c1cc(Cl)ccc1Sc1ccccc1
T/C [2]: 105 % of control | T/C [3]: 91 % of control | T/C [4]: 108 % of control

C[n+]1c(-c2cccc3ccccc23)c2cc([N+](=O)[O-])ccc2c2ccccc21
T/C (dose: 1.0 mg/kg/injection, schedule: Q04DX003 (ip), vehicle: water): 113 % of control | T/C (dose: 2.0 mg/kg/injection, schedule: Q04DX003 (ip), vehicle: water): 104 % of control | T/C (dose: 4.0 mg/kg/injection, schedule: Q01DX009 (ip), vehicle: water): 118 % of control | T/C (dose: 4.0 mg/kg/injection, schedule: Q04DX003 (ip), vehicle: water): 115 % of control | T/C (dose: 8.0 mg/kg/injection, schedule: Q04DX003 (ip), vehicle: water): 97 % of control and 108 % of control | T/C (dose: 16.0 mg/kg/injection, schedule: Q04DX003 (ip), vehicle: water): 109 % of control | T/C (dose: 32.0 mg/kg/injection, schedule: Q01DX009 (ip), vehicle: water): 109 % of control | T/C (dose: 32.0 mg/kg/injection, schedule: Q04DX003 (ip), vehicle: water): 106 % of control

O=C(CCCN1CCC(C(=O)c2ccc(Cl)cc2)CC1)c1ccc(F)cc1
T/C (dose: 12.5 mg/kg/injection, schedule: Q01DX009 (ip), vehicle: Klucel (hydroxypropylcellulose) (HPC)): 112 % of control

CCCCCCC(N)C(C)O (stereo not given)
T/C (dose: 12.5 mg/kg/injection, schedule: Q01DX009 (ip), vehicle: saline): 105 % of control | T/C (dose: 25.0 mg/kg/injection, schedule: Q01DX009 (ip), vehicle: saline): 100 % of control | T/C [5]: 101 % of control | T/C [6]: 105 % of control

O=C(N[C@H](CO)[C@H](O)c1ccc([N+](=O)[O-])cc1)C(Cl)Cl
T/C [7]: 118 % of control

CCOC(=O)C(NC(=O)OCc1ccccc1)(OCc1ccccc1)C(C)C (stereo not given)
T/C [2]: 97 % of control | T/C [3]: 105 % of control | T/C [4]: 94 % of control

CNc1nc(N)nc(Nc2ccc(I)cc2)c1N=O
T/C [7]: 90 % of control and 100 % of control | T/C [2]: 95 % of control | T/C [8]: 90 % of control and 91 % of control | T/C [3]: 112 % of control | T/C [9]: 87 % of control | T/C [4]: 91 % of control

CN(C)c1cc2nc[nH]c(=O)c2cc1[N+](=O)[O-]
T/C [10]: 116 % of control

COC(C)C(Br)C(=O)O (stereo not given)
T/C (dose: 100.0 mg/kg/injection, schedule: Q01DX009 (ip), vehicle: saline): 88 % of control | T/C [1]: 100 % of control | T/C [11]: 92 % of control | T/C [12]: 91 % of control | T/C [13]: 91 % of control

CC(O)C(NCNC(=O)C1=C(O)C2(O)C(=O)C3=C(O)c4c(O)cccc4C(C)(O)C3CC2C(N(C)C)C1=O)C(=O)O (stereo not given)
T/C [7]: 91 % of control | T/C [8]: 100 % of control | T/C [9]: 87 % of control

O=[N+]([O-])c1ccc(S(=O)(=O)Cc2ccccc2)c2c1no[n+]2[O-]
T/C [14]: 116 % of control | T/C [5]: 116 % of control

CCN1/C(=C/C=C/C=C\C=C\c2sc3ccc4ccccc4c3[n+]2CC)Sc2ccc3ccccc3c21
T/C (dose: 1.56 mg/kg/injection, schedule: Q04DX002 (ip), vehicle: saline with Tween-80): 173 % of control | T/C (dose: 3.12 mg/kg/injection, schedule: Q04DX002 (ip), vehicle: saline with Tween-80): 162 % of control

CCN(CC)C(=O)c1ccc(C(Cl)(Cl)Cl)cc1
T/C [15]: 102 % of control | T/C [5]: 100 % of control and 109 % of control and 120 % of control | T/C [7]: 100 % of control (2×) and 104 % of control | T/C [10]: 100 % of control | T/C (dose: 176.0 mg/kg/injection, schedule: Q04DX003 (ip), vehicle: saline sonified): 104 % of control | T/C [8]: 112 % of control | T/C (dose: 200.0 mg/kg/injection, schedule: Q04DX003 (ip), vehicle: Klucel (hydroxypropylcellulose) (HPC)): 95 % of control | T/C (dose: 264.0 mg/kg/injection, schedule: Q04DX003 (ip), vehicle: saline sonified): 104 % of control | T/C [9]: 109 % of control

OC1CCCC2CCCNC12 (stereo not given) (tested in a mixture with another compound)
T/C [14]: 88 % of control | T/C [5]: 103 % of control | T/C [7]: 100 % of control

O=C1CC(=Nc2ccccc2)N(c2ccccc2)N1
T/C (dose: 33.75 mg/kg/injection, schedule: Q01DX009 (ip), vehicle: saline with Tween-80): 109 % of control | T/C (dose: 67.5 mg/kg/injection, schedule: Q01DX009 (ip), vehicle: saline with Tween-80): 91 % of control | T/C (dose: 135.0 mg/kg/injection, schedule: Q01DX009 (ip), vehicle: saline with Tween-80): 89 % of control

C[C@@H]1CN(C(=O)CCOS(C)(=O)=O)[C@@H](C)CN1C(=O)CCOS(C)(=O)=O
T/C (dose: 50.0 mg/kg/injection, schedule: Q04DX003 (ip), vehicle: saline with Tween-80): 166 % of control | T/C [7]: 272 % of control | T/C [2]: 208 % of control | T/C [8]: 104 % of control | T/C [3]: 172 % of control | T/C (dose: 264.0 mg/kg/injection, schedule: Q04DX003 (ip), vehicle: saline with Tween-80): 233 % of control | T/C [4]: 250 % of control and 272 % of control

c1ccc2c(c1)Cn1c-2nc2ccccc21
T/C (dose: 100.0 mg/kg/injection, schedule: Q04DX003 (ip), vehicle: other): 118 % of control | T/C (dose: 200.0 mg/kg/injection, schedule: Q04DX003 (ip), vehicle: other): 109 % of control | T/C (dose: 400.0 mg/kg/injection, schedule: Q04DX003 (ip), vehicle: other): 113 % of control

CC[CH2][Pb]([CH2]CC)([CH2]CC)[O]C(=O)C(Cl)(Cl)Cl
T/C (dose: 3.12 mg/kg/injection, schedule: Q01DX009 (ip), vehicle: saline with Tween-80): 122 % of control | T/C (dose: 6.25 mg/kg/injection, schedule: Q01DX009 (ip), vehicle: saline with Tween-80): 121 % of control | T/C [15]: 108 % of control

CCC(C(=O)O)c1ccccc1 (stereo not given)
T/C [5]: 90 % of control | T/C [8]: 109 % of control

CCn1c(O)c(N=NC(=S)NC)c2ccccc21
T/C (dose: 37.5 mg/kg/injection, schedule: Q01DX009 (ip), vehicle: saline with Tween-80): 86 % of control

CC([NH-])C(=O)O.O=C(O)CN(CC(=O)O)CC(=O)O.[Co+2]
T/C [6]: 110 % of control and 113 % of control | T/C (dose: 66.0 mg/kg/injection, schedule: Q01DX009 (ip), vehicle: saline): 114 % of control | T/C [1]: 87 % of control | T/C (dose: 150.0 mg/kg/injection, schedule: Q01DX009 (ip), vehicle: saline): 104 % of control | T/C [11]: 104 % of control | T/C [12]: 104 % of control | T/C [13]: 91 % of control

From PubChem BioAssay AID328 (DTP/NCI, 2004)
